These are literature values, as cited in US7276641B2, “External plaster containing 4-biphenylacetic acid” (Teikoku Seiyaku Co., Ltd., priority 2000, dated 2007).

Structures are written as SMILES. Read-outs that look alike come from different tables or passages of the source.

For `O=C(O)Cc1ccc(-c2ccccc2)cc1` [BPAA, 4-biphenylyl acetic acid], the solubility entry was “not more than 11%” (aqueous plaster with diisopropanolamine as solubilizer); “at most 7%” (crotamiton as solubilizer); “less soluble” (in acetone, ethanol, glacial acetic acid, and ether); “readily soluble” (in dimethylacetamide); “hardly soluble” (in polyols, glycols, and esters); “hardly soluble” (in water).
